One experiment has as its system A549. Put plainly: Cytotoxicity against human A549 cells after 24 hrs. The experiment is classed as functional, cell-based. As to conditions: for IC50: A549, 24 h.
In a further experiment the test system is P388. Put plainly: Cytotoxicity against mouse P388 cells after 24 hrs. The experiment is classed as functional, cell-based. As to conditions: for IC50: P388, 24 h.

Consider 6 compounds from ChEMBL document CHEMBL1148219, “Cytotoxic sesquiterpene lactones from Eupatorium lindleyanum” (J Nat Prod, 2004).

Structures are written as SMILES. Values after ≈ are worked out from the molar mass of the structure shown. Active and inactive are the calls of the source. No cut-off for these calls is given here.

Usually IC50 stands for the concentration at which inhibition is half-maximal. As to `C=C1C(=O)O[C@@H]2[C@H]3C(C)=C[C@H]4OC[C@@](O)(C[C@@H](OC(=O)/C(C)=C/CO)[C@@H]12)[C@@H]34` [EUPALINILIDE C], the figures for the IC50 in the experiment on A549 and in the experiment on P388 were 11 µg/mL (≈ 29.2 µM) and 1.2 µg/mL (≈ 3.19 µM), respectively.
Regarding `COC(=O)C1=CC[C@@]23CC[C@@H]([C@@](C)(/C=C/C=C(\C)C(=O)O)OC2=O)[C@@]3(OC(C)=O)CC1` [PSEUDOLARIC ACID B], the 50% inhibitory concentration (IC50) in the experiment on A549 was found to be 0.86 µg/mL (≈ 1.99 µM).
Take `C=C1C(=O)O[C@H]2[C@H]1[C@H](OC(=O)/C(C)=C/CO)CC(=C)[C@@H]1C=C[C@@](C)(O)[C@H]21` [EUPALINILIDE B]: the half-inhibitory concentration (IC50) with A549 turned out to be 0.75 µg/mL (≈ 2.08 µM); in the experiment with P388, 0.21 µg/mL (≈ 0.583 µM).
`C=C1C(=O)O[C@@H]2[C@H]3C(C)=C[C@@H](O)[C@H]3[C@@](O)(CO)C[C@@H](OC(=O)/C(C)=C/CO)[C@@H]12`: the outcome with A549 and with P388 was inactive.
As for `C=C1C(=O)O[C@H]2[C@H]1[C@H](OC(=O)/C(C)=C/CO)C[C@](O)(CO)[C@@H]1[C@H](O)[C@H]3O[C@@]3(C)[C@H]21`, the outcome in the experiment on A549 and with P388 was inactive.
For the compound `C=C1C(=O)O[C@@H]2[C@H]3C(C)=C[C@@H](O)[C@H]3[C@@](O)(CCl)C[C@@H](OC(=O)/C(C)=C/C)[C@@H]12` [EUPALINILIDE E], inhibition in the experiment with A549 was half-maximal at 0.028 µg/mL (≈ 0.0706 µM) (IC50). In addition, the result with P388 was inactive.
